Data reported in ChEMBL document CHEMBL4480396 (Eur J Med Chem, 2019).

Key:
Assay type in all cases: functional, cell-based
[1] = test system: MGC-803; assay: Antiproliferative activity against human MGC803 cells measured after 48 hrs by CCK8 assay; conditions: MGC-803, 48 h
[2] = test system: HepG2; assay: Antiproliferative activity against human HepG2 cells measured after 48 hrs by MTT assay; conditions: HepG2, 48 h
[3] = test system: MGC-803; assay: Antiproliferative activity against human MGC803 cells measured after 48 hrs by MTT assay; conditions: MGC-803, 48 h
[4] = test system: PC-3; assay: Antiproliferative activity against human PC3 cells measured after 48 hrs by MTT assay; conditions: PC-3, 48 h

Row | SMILES | IC50 [1] | IC50 [2] | IC50 [3] | IC50 [4]
1 | COc1cc(N2C(=O)[C@H](c3cccs3)[C@H]2c2cccc(N=[N+]=[N-])c2)cc(OC)c1OC | 0.106 µM | – | – | –
2 | COc1ccc(CN(C(=O)Cn2cc(CSc3nnc(-c4ccccc4)c(-c4ccccc4)n3)nn2)c2cc(OC)c(OC)c(OC)c2)cc1 | – | 21.8 µM | 1.52 µM | 19.6 µM
3 | COc1ccc(CN(C(=O)Cn2cc(CNS(=O)(=O)c3ccc(C)cc3)nn2)c2cc(OC)c(OC)c(OC)c2)cc1 | – | 30.5 µM | 1.58 µM | 12.4 µM
4 | COc1cc2c(c(OC)c1OC)-c1ccc(OC)c(=O)cc1[C@@H](NC(C)=O)CC2 [COLCHICINE] | – | 4.6 µM | 0.27 µM | 0.59 µM
5 | COc1ccc(CN(C(=O)Cn2cc(CN3c4ccccc4Sc4ccccc43)nn2)c2cc(OC)c(OC)c(OC)c2)cc1 | – | > 80 µM | > 80 µM | > 80 µM

Further lines, results first:

Row | IC50 [1] | IC50 [2] | IC50 [3] | IC50 [4] | SMILES
6 | – | 25 µM | 1.61 µM | 16 µM | COc1ccc(CN(C(=O)Cn2cc(CSC3=NCCS3)nn2)c2cc(OC)c(OC)c(OC)c2)cc1
7 | – | 40.1 µM | 42.6 µM | 2.39 µM | COc1ccc(CN(C(=O)Cn2cc(Cn3ccc4ccccc43)nn2)c2cc(OC)c(OC)c(OC)c2)cc1
8 | – | 28.3 µM | 6.57 µM | 10.9 µM | COc1ccc(CN(C(=O)Cn2cc(CSc3nnnn3C)nn2)c2cc(OC)c(OC)c(OC)c2)cc1
9 | – | 1.3 µM | 0.18 µM | 0.86 µM | COc1ccc(CN(C(=O)Cn2cc(COc3ccc4ccc(=O)oc4c3)nn2)c2cc(OC)c(OC)c(OC)c2)cc1
10 | – | 6.25 µM | 3.66 µM | 5.14 µM | COc1ccc(CN(C(=O)Cn2cc(COc3cc(=O)oc4ccccc34)nn2)c2cc(OC)c(OC)c(OC)c2)cc1
